Test results from patent US20250250227A1, “AMINO LIPID COMPOUND, PREPARATION METHOD THEREFOR, COMPOSITION THEREOF AND USE THEREOF” (SHENZHEN SHENXIN BIOTECHNOLOGY CO., LTD., priority 2022, published 2025).

Legend:
[1] = Preparation and characterisation of mRNA-encapsulating lipid nanoparticle (encapsulation efficiency, particle size); assay type: physicochemical; settings: LNP encapsulating Fluc mRNA; Lipid:DSPC:CHO-HP:M-DMG-2000 48:10:40.5:1.5
Description: A specified amount of Fluc mRNA stock solution, 0.2 M sodium acetate buffer, and DEPC water were added to a container, and mixed well to obtain a water phase;
The amino lipid compound of the present disclosure, a helper lipid, a structural lipid, and a PEG-lipid were separately dissolved in absolute ethanol to prepare respective solutions at concentrations of 20 mg/mL, 10 mg/mL, 20 mg/mL, and 25 mg/mL, respectively. The above four solutions were pipetted at a molar ratio of Lipid:DSPC:CHO—HP:M-DMG-2000 of 48:10:40.5:1.5, and mixed well to prepare an alcohol phase. • (2) Encapsulation: The water phase and the alcohol phase were injected into a microfluidic chip at a flow rate of water phase: alcohol phase=12 mL/min: 4 mL/min by using a microfluidic preparation instrument (MPE-L2), and encapsulation was carried out at a flow rate of water phase: alcohol phase=9 mL/min: 3 mL/min to obtain mRNA-encapsulating lipid nanoparticle (mRNA-LNP). • (3) Dialysis: The product of step (2) was loaded in a dialysis bag and placed in a Tris Buffer-8% sucrose solution for replacement to remove ingredients such as residual ethanol, unassembled lipids. Dialysis was conducted for 2 h with magnetic stirring at room temperature and under protection from light (dialysate was replaced every 1 hour). • (4) The product of step (3) was sterilized by passing through a […] microporous membrane, and then packaged.
Lipid nanoparticle formulations encapsulating Fluc mRNA were prepared, with a concentration of Fluc mRNA of 0.2 g/L, a mass ratio of Fluc mRNA to Lipid of 1:10, a particle size of 80-130 nm, and a encapsulation efficiency of 85% or higher.
The encapsulation efficiency of the lipid nanoparticle encapsulating luciferase mRNA (Fluc mRNA) with a representative amino lipid compound and the fluorescence expression intensity induced by the same are shown in Table 4, with the amino lipid compound 118 as a control. […]

[2] = system: Female BALB/c mice; assay: Performance evaluation of in vivo delivery of Fluc mRNA lipid nanoparticle (IVIS, body and organs); settings: Fluc mRNA LNP; for Liver (fluorescence expression intensity) / Spleen (fluorescence expression intensity): 75 μL IV; for Liver (fluorescence expression intensity) / Spleen (fluorescence expression intensity) / Total flux (fluorescence expression intensity) / (Spleen/Total Flux) * 100%: 6 hours after injection; for Liver (fluorescence expression intensity) / Spleen (fluorescence expression intensity) / Total flux (fluorescence expression intensity): IVIS; for Total flux (fluorescence expression intensity): 75 μL tail vein injection (IV); for (Spleen/Total Flux) * 100% / Multiple of spleen delivery/total delivery to amino lipid compound 118: IV; for Multiple of spleen delivery/total delivery to amino lipid compound 118: relative to amino lipid compound 118
Description: Animal preparation: Female BALB/c mice of 6-8 weeks old were selected and raised in an SPF grade breeding room. Animal testing was conducted in strict accordance with the guidelines of national health institutions and animal ethics requirements.
In vivo Delivery: prior to injection of the test LNP formulations, the LNP formulations were gently and repeatedly inverted to thoroughly mix the formulation samples. A corresponding amount of the formulation samples were aspirated with a 1 ml insulin syringe, and the LNP formulations were injected by tail vein injection (IV), with 3 mice in duplicate per formulation. Each mouse was injected with 75 μL of the luciferase mRNA (Fluc mRNA)-encapsulating lipid nanoparticle formulation prepared in Experimental Example 1.
6 hours after injection of LNP formulations, mice were injected with 200 μL D-Luciferin luciferase developing substrate (Catalog No. 122799; Manufacturer: Perkin Elmer). After the substrate was injected, the mice were anesthetized with isoflurane inhalation, and the injection time of luciferase developing substrate was recorded.
The encapsulation efficiency of the lipid nanoparticle encapsulating luciferase mRNA (Fluc mRNA) with a representative amino lipid compound and the fluorescence expression intensity induced by the same are shown in Table 4, with the amino lipid compound 118 as a control.
The multiple of spleen delivery/total delivery of fluorescence expression intensity induced by lipid nanoparticle encapsulating luciferase mRNA (Fluc mRNA) with a representative amino lipid compound to amino lipid compound 118 is shown in Table 5.

| Structure (SMILES) | Encapsulation efficiency [1] [%] | Liver (fluorescence expression intensity) [2] | Spleen (fluorescence expression intensity) [2] | Total flux (fluorescence expression intensity) [2] | (Spleen/Total Flux) * 100% [2] [%] | Multiple of spleen delivery/total delivery to amino lipid compound 118 [2] |
| --- | --- | --- | --- | --- | --- | --- |
| CCCCCCC(CCCCCC)OC(=O)CCCCCCCCC(CCCCCCCCC(=O)OC(CCCCCC)CCCCCC)OC(=O)N(CCCC(=O)OC(C)CC)CCCN(C)C (stereo not drawn) [Compound 308] | 93.71 | 9.58E+07 | 4.93E+06 | 6.29E+08 | 0.78 | 2.31 |
| CC/C=C\CCOC(=O)CCCN(CCCN(C)C)C(=O)OC(CCCCCCCCC(=O)OC(CCCCCC)CCCCCC)CCCCCCCCC(=O)OC(CCCCCC)CCCCCC [Compound 277] | 91.00 | 7.98E+07 | 8.42E+06 | 3.14E+08 | 2.68 | 7.89 |
| CCCC/C=C\CCOC(=O)CCCN(CCCN(C)C)C(=O)OC(CCCCCCCCC(=O)OC(CCCCCC)CCCCCC)CCCCCCCCC(=O)OC(CCCCCC)CCCCCC [Compound 279] | 92.43 | 9.55E+07 | 4.57E+06 | 6.29E+08 | 0.73 | 2.14 |
| CCCCCCC(CCCCCC)OC(=O)CCCCCCCCC(CCCCCCCCC(=O)OC(CCCCCC)CCCCCC)OC(=O)N(CCCCCC)CCCN(C)C [Compound 109] | 92.87 | 5.22E+07 | 8.53E+05 | 2.80E+08 | 0.30 | 0.90 |
| CCCCCCCN(CCCN(C)C)C(=O)OC(CCCCCCCCC(=O)OC(CCCCCC)CCCCCC)CCCCCCCCC(=O)OC(CCCCCC)CCCCCC [Compound 110] | 90.82 | 5.83E+07 | 8.71E+05 | 2.44E+08 | 0.36 | 1.05 |
| CCCCCCC(CCCCCC)OC(=O)CCCCCCCCC(CCCCCCCCC(=O)OC(CCCCCC)CCCCCC)OC(=O)N(CCCCC)CCCN(C)C [Compound 108] | 91.78 | 6.84E+07 | 1.02E+06 | 3.40E+08 | 0.30 | 0.88 |
| CCCCCCC(CCCCCC)OC(=O)CCCCCCCCC(CCCCCCCCC(=O)OC(CCCCCC)CCCCCC)OC(=O)N(CCCN(C)C)CCC(=O)OC(C)C [Compound 316] | 90.67 | 1.26E+08 | 2.03E+07 | 8.16E+08 | 2.49 | 7.32 |
| CCCCCCC(CCCCCC)OC(=O)CCCCCCCCC(CCCCCCCCC(=O)OC(CCCCCC)CCCCCC)OC(=O)N(CCCN1CCCC1)CC(=O)OCC [Compound 367] | 91.21 | 1.06E+07 | 4.33E+05 | 9.45E+07 | 0.46 | 1.35 |
| CCCCCCC(CCCC)COC(=O)CCCCCCCCC(CCCCCCCCC(=O)OCC(CCCC)CCCCCC)OC(=O)N(CCCC(=O)OCCCCC)CCCN(C)C (stereo not drawn) [Compound 371] | 93.17 | 2.92E+08 | 2.36E+07 | 1.12E+09 | 2.11 | 6.20 |
| CCCCCCC(C)OC(=O)CN(CCCN(C)C)C(=O)OC(CCCCCCCCC(=O)OC(CCCCCC)CCCCCC)CCCCCCCCC(=O)OC(CCCCCC)CCCCCC (stereo not drawn) [Compound 337] | 92.38 | 6.49E+07 | 3.30E+06 | 3.58E+08 | 0.92 | 2.71 |
| CC/C=C\COC(=O)CCCCCN(CCCN(C)C)C(=O)OC(CCCCCCCCC(=O)OC(CCCCCC)CCCCCC)CCCCCCCCC(=O)OC(CCCCCC)CCCCCC [Compound 284] | 91.63 | 3.29E+07 | 5.20E+06 | 3.42E+08 | 1.52 | 4.47 |
| CCCCCCC(CCCCCC)OC(=O)CCCCCCCCC(CCCCCCCCC(=O)OC(CCCCCC)CCCCCC)OC(=O)N(CCCCC(=O)OC(CC)CC)CCCN(C)C [Compound 304] | 92.03 | 1.06E+08 | 1.48E+07 | 5.18E+08 | 2.86 | 8.40 |
| CCCCCCC(CCCCCC)OC(=O)CCCCCCCCC(CCCCCCCCC(=O)OC(CCCCCC)CCCCCC)OC(=O)N(CCCN(C)C)CCC(=O)OC(C)CCCCC (stereo not drawn) [Compound 322] | 90.32 | 9.73E+07 | 6.56E+06 | 7.90E+08 | 0.83 | 2.44 |
| CCCCCCCC(=O)N(CCCN(C)C)C(CCCCCCCCC(=O)OC(CCCCCC)CCCCCC)CCCCCCCCC(=O)OC(CCCCCC)CCCCCC [Compound 118, reference compound] | 90.53 | 1.88E+08 | 2.19E+06 | 6.46E+08 | 0.34 | 1.00 |
| CCCCCCC(CCCCCC)OC(=O)CCCCCCCCC(CCCCCCCCC(=O)OC(CCCCCC)CCCCCC)OC(=O)N(CCCCCC(=O)OCC)CCCCN1CCCC1 [Compound 366] | 93.63 | 8.92E+07 | 4.11E+06 | 5.82E+08 | 0.71 | 2.08 |
| CCCCCCC(CCCCCC)OC(=O)CCCCCCCCC(CCCCCCCCC(=O)OC(CCCCCC)CCCCCC)OC(=O)N(CCCN(C)C)CC(=O)OC(CC)CCCCC (stereo not drawn) [Compound 338] | 91.13 | 1.07E+08 | 3.20E+06 | 6.32E+08 | 0.51 | 1.49 |
| CCCCCCCOC(=O)CN(CCCN(C)C)C(=O)OC(CCCCCCCCC(=O)OCC(CCCC)CCCCCC)CCCCCCCCC(=O)OCC(CCCC)CCCCCC (stereo not drawn) [Compound 375] | 94.18 | 1.55E+08 | 7.63E+06 | 4.06E+08 | 1.88 | 5.53 |
